Results as given in publication PMC7932537, “Quantitative profiling of protease specificity” (PLoS Computational Biology, 2021).

What was measured:
MMP-2 = biological target: T1, MMP-2 (Homo sapiens, UniProt P08253); assay: K(obs) of individual phage substrates (set of 1369); type: biochemical; settings: MMP2
T1 sequence (P08253 110-660): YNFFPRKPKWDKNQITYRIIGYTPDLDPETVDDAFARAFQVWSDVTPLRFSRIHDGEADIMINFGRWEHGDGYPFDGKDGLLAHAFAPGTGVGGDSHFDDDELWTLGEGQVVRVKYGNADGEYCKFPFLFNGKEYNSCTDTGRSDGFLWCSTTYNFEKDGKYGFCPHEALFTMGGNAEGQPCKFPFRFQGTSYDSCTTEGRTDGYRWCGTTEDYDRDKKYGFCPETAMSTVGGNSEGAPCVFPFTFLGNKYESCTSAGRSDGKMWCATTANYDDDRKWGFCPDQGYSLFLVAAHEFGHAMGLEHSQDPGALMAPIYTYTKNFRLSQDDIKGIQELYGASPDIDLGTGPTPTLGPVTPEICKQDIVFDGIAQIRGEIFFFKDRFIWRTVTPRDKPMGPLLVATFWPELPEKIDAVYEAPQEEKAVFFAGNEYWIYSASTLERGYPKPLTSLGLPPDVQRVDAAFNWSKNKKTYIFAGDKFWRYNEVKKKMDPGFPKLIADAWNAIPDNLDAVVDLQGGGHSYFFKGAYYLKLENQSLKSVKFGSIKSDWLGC

MMP-9 = MMP-9 (Homo sapiens, UniProt P14780); assay: as above; type: biochemical; settings: MMP9, individual phage substrates, set of 1369 peptides
Chain of MMP-9 (P14780 94-707): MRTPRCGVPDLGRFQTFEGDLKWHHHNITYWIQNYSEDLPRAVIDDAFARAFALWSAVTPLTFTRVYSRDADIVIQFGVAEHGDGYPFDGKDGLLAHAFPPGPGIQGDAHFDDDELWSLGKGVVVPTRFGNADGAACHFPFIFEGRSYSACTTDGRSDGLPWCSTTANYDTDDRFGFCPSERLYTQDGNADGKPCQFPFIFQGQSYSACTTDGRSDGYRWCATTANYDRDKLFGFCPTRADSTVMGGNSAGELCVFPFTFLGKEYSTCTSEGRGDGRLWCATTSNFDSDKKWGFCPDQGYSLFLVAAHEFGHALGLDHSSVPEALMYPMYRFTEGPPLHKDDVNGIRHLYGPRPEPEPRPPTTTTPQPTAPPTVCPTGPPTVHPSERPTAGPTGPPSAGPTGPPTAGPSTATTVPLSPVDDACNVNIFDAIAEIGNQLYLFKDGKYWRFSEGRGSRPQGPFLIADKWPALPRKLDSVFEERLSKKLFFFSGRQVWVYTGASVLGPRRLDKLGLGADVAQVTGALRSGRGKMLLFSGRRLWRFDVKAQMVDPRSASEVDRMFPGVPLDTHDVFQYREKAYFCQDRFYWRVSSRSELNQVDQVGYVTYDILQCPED

[1] = individual phage substrate from the set of 1369 peptides, cleavage position marked by the dash in the sequence
[2] = dash in sequence marks cleavage position
[3] = individual phage substrates, set of 1369 peptides, cleavage position marked by '-' in the sequence
[4] = '-' marks the cleavage position (P1-P1')

| Substance | Kobs (MMP-2; [1]) [M⁻¹ s⁻¹] | Kobs (MMP-9; [2]) [M⁻¹ s⁻¹] | Kobs (MMP-2; [3]) [M⁻¹ s⁻¹] | Kobs (MMP-9; [4]) [M⁻¹ s⁻¹] |
| --- | --- | --- | --- | --- |
| GEAWH-LFTAS | 292.668 | 355.093 |  |  |
| GEIAS-LSTAS | 7386.83 | 84.609 |  |  |
| GEVWR-LHTAS | 56.119 | 0 |  |  |
| GFAIS-MVTAS |  |  | 113.394 | 84.609 |
| GFAKH-LLTAS | 56.119 | 201.585 |  |  |
| GFHRS-IRTAS | 292.668 | 0 |  |  |
| GGASG-LMTAS |  |  | 451.441 | 84.609 |
| GGHQW-LRTAS | 2687.73 | 0 |  |  |
| GGLGM-MLTAS |  |  | 836.403 | 0 |
| GGSGA-LHRPG | 1071.29 | 0 |  |  |
| GGSGA-LIAND |  |  | 874.197 | 0 |
| GGSGA-LQRLP |  |  | 113.394 | 0 |
| GGSGA-LQVPT |  |  | 0 | 56.119 |
| GGSGA-LREKV | 201.585 | 292.668 |  |  |
| GGSGA-LRVQL |  |  | 231.616 | 0 |
| GGSGA-LTMPL |  |  | 0 | 171.876 |
| GGSGA-LTSRF | 4613.14 | 0 |  |  |
| GGSGA-YTMVA | 726.013 | 551.253 |  |  |
| GGSGE-LRLSN |  |  | 56.119 | 0 |
| GGSGF-LMSWM |  |  | 12792.1 | 1112.44 |
| GGSGF-LVAKA | 1327.88 | 0 |  |  |
| GGSGF-LVRSL |  |  | 9740.44 | 10866.7 |
| GGSGM-LLMKQ |  |  | 0 | 0 |
| GGSGN-LIYWN |  |  | 231.616 | 142.481 |
| GGSGN-LTFLA | 451.441 | 0 |  |  |
| GGSGN-LVRVR | 142.481 | 0 |  |  |
| GGSGP-LHQTK | 1154.21 | 2218.08 |  |  |

| Substance | Kobs (MMP-2; [1]) [M⁻¹ s⁻¹] | Kobs (MMP-9; [2]) [M⁻¹ s⁻¹] | Kobs (MMP-2; [3]) [M⁻¹ s⁻¹] | Kobs (MMP-9; [4]) [M⁻¹ s⁻¹] |
| --- | --- | --- | --- | --- |
| GGSGP-LMLPF |  |  | 3964.21 | 517.582 |
| GGSGP-LRARL | 1816.46 | 0 |  |  |
| GGSGQ-LFNVG | 4470.66 | 762.325 |  |  |
| GGSGQ-LLATK | 619.843 | 0 |  |  |
| GGSGQ-LLLRN |  |  | 0 | 0 |
| GGSGQ-LRREY | 355.093 | 355.093 |  |  |
| GGSGR-LKWNL | 551.253 | 690.17 |  |  |
| GGSGR-LLQFL |  |  | 8321.48 | 0 |
| GGSGR-LMYER | 0 | 0 |  |  |
| GGSGR-LNMRL |  |  | 0 | 0 |
| GGSGR-LRLAI | 0 | 0 |  |  |
| GGSGR-LTLKW | 0 | 0 |  |  |
| GGSGR-LVLRV |  |  | 0 | 0 |
| GGSGR-LVMTY | 142.481 | 261.974 |  |  |
| GGSGR-LVVRL |  |  | 113.394 | 0 |
| GGSGS-LNQRL | 585.336 | 0 |  |  |
| GGSGS-LRLFE |  |  | 0 | 0 |
| GGSGS-LSVWK | 0 | 0 |  |  |
| GGSGS-LTFNT | 0 | 0 |  |  |
| GHAHH-LYTAS | 171.876 | 201.585 |  |  |
| GHLAS-QRTAS |  |  | 1870.4 | 0 |
| GHPWL-QRTAS |  |  | 0 | 56.119 |
| GIAMN-ILTAS |  |  | 0 | 990.764 |
| GISMY-LTASG |  |  | 690.17 | 0 |
| GKASN-LYTAS |  |  | 3165.09 | 1030.73 |
| GKFAT-LVTAS | 56.119 | 0 |  |  |
| GKPLP-WTASG |  |  | 6131.32 | 5889.62 |

| Substance | Kobs (MMP-2; [1]) [M⁻¹ s⁻¹] | Kobs (MMP-9; [2]) [M⁻¹ s⁻¹] | Kobs (MMP-2; [3]) [M⁻¹ s⁻¹] | Kobs (MMP-9; [4]) [M⁻¹ s⁻¹] |
| --- | --- | --- | --- | --- |
| GKPNR-LVTAS | 2761.81 | 1239.69 |  |  |
| GKPQN-LRTAS | 12792.1 | 12792.1 |  |  |
| GKTWA-LTASG |  |  | 323.705 | 912.511 |
| GKVHQ-MLTAS |  |  | 0 | 27.918 |
| GKVNN-LVTAS |  |  | 517.582 | 201.585 |
| GKVRN-LTTAS |  |  | 10866.7 | 8321.48 |
| GLAVG-LRTAS |  |  | 12792.1 | 4922.1 |
| GLAYS-LQTAS | 1561.44 | 2476.66 |  |  |
| GLPQA-LLTAS |  |  | 12792.1 | 12792.1 |
| GMVLN-LTASG |  |  | 12792.1 | 7015.91 |
| GMYLN-LKTAS |  |  | 0 | 0 |
| GNADL-IMTAS | 0 | 0 |  |  |
| GNAMR-MVTAS |  |  | 0 | 56.119 |
| GPAGH-LSTAS | 5889.62 | 951.362 |  |  |
| GPAQD-LYTAS | 0 | 0 |  |  |
| GPMQR-LMTAS |  |  | 0 | 0 |
| GPVMR-MSTAS |  |  | 0 | 0 |
| GQAWA-LGTAS |  |  | 484.315 | 355.093 |
| GQHMR-LITAS |  |  | 0 | 836.403 |
| GQPAH-LSTAS | 10866.7 | 2761.81 |  |  |
| GQPFA-LSTAS |  |  | 12792.1 | 12792.1 |
| GQPNF-LTASG | 2157.02 | 1283.43 |  |  |
| GQPRN-LSTAS | 12792.1 | 12792.1 |  |  |
| GQPVP-MLTAS |  |  | 7386.83 | 6131.32 |
| GQVFR-LITAS |  |  | 0 | 323.705 |
| GQVRA-LRTAS |  |  | 12792.1 | 12792.1 |
